Assay results taken from US12398151B2, “Sumo inhibitor compounds and uses thereof” (SUVALENT THERAPEUTICS, INC., priority 2019, dated 2025).
Where two headings read alike, the source gives them in different places.

Key:
Atg7 = target: T1, Atg7 (Homo sapiens, UniProt O95352); experiment: Atg7 activating enzyme (E1) inhibition; type: biochemical; details: 25 uM compound, 60 min preincubation; read-out: Atg7 percent inhibition of adduct formation
T1 sequence (O95352 1-703): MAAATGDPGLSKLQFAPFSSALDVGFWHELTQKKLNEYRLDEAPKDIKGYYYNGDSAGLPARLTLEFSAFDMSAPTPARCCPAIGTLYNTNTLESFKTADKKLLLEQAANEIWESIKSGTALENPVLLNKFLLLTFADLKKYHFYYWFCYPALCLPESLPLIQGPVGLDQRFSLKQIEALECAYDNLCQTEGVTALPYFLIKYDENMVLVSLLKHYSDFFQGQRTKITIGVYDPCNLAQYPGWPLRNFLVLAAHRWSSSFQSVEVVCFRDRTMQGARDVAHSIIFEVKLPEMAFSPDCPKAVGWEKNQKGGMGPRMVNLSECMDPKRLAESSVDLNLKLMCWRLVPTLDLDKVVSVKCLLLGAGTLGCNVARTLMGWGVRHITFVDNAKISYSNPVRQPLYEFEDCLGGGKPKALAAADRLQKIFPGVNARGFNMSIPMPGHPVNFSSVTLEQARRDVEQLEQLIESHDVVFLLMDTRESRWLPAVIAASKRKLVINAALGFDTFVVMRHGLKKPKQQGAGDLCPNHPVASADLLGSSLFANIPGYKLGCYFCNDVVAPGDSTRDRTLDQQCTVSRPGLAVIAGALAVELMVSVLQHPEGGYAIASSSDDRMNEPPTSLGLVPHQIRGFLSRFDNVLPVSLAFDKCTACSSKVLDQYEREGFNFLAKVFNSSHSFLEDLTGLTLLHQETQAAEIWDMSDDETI
Protocol: (§1) Compounds are evaluated for their inhibitory effect on activating enzymes (E1) of ubiquitin, SUMO, Nedd8, Urm1, ISG15 or Atg7 using previously reported methods and protocols. One example is in: Allosteric inhibition of ubiquitin-like modifications by a class of inhibitor of SUMO-activating enzyme. Cell Chemical Biology, 26, 1-11, 2019. PMID: 28051857.
(§2) Compounds are tested in the following manner. The compound and SUMO E1 are incubated for a predetermined amount of time. UBC9, SUMO1, and ATP are added to the E1-compound mixture and incubated at 37° C. The reaction is quenched with Laemmli Buffer. The UBC9-SUMO1 conjugation is analyzed via SDS gel electrophoresis. The percent inhibition is measured by the intensity of the UBC9-SUMO1 band compared to the no compound control. Activities are listed as compound concentration (uM), preincubation time of E1 with compound (min), and percent inhibition of adduct formation (%). […]

SUMO E1 = target: T2, SUMO E1 (Homo sapiens, UniProt Q9UBT2); experiment: SUMO E1 inhibition: UBC9-SUMO1 conjugation by SDS gel electrophoresis; type: biochemical; details: read-out: SUMO E1 percent inhibition of adduct formation; for inhibition at 27 µM: 27 uM compound; for inhibition at 25 µM: 25 uM compound; for inhibition at 10 µM: 10 uM compound; for inhibition at 1 µM: 1 uM compound; for inhibition at 9 µM: 9 uM compound; for inhibition at 3 µM: 3 uM compound
T2 sequence (Q9UBT2 1-640): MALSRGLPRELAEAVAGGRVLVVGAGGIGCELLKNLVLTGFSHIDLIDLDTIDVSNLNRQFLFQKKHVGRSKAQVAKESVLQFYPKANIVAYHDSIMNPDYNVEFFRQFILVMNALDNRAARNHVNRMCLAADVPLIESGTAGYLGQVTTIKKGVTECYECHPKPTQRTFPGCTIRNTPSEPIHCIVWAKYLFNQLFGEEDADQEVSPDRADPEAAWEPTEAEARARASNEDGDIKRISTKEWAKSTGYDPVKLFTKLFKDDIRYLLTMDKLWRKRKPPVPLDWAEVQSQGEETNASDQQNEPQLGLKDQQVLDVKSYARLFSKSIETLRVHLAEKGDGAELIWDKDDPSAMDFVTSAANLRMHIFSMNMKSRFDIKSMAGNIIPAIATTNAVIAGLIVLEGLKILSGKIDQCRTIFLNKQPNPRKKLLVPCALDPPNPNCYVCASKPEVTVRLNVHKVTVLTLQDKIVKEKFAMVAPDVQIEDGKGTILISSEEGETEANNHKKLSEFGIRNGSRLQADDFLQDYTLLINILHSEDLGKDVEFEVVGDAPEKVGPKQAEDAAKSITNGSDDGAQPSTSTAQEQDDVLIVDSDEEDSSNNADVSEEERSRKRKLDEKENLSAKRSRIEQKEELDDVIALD
T2 sequence (Q9UBE0 1-346 partner): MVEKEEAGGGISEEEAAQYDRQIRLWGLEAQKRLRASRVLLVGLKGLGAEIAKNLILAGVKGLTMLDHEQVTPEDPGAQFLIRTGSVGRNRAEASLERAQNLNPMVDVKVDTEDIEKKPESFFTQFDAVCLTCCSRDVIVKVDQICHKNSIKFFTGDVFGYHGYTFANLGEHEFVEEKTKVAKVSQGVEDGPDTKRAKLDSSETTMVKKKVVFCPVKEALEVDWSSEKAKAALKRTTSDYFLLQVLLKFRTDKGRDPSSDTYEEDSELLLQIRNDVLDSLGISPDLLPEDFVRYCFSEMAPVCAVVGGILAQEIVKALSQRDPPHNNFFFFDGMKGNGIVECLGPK
Protocol: as §1, §2

[1] = 55 min preincubation of E1 with compound

inhibition at 25 µM (Atg7) [%] | inhibition at 25 µM (SUMO E1; 60 min preincubation) [%] | SMILES | further results
< 1 | – | Cc1ccccc1[C@H]1CN(C(=O)/C=C/c2ccccn2)Cc2sc(Cl)cc21 [Compound 119] | inhibition at 27 µM (SUMO E1; 30 min preincubation): < 1%
< 1 | – | C=CC(=O)N1Cc2sc(Cl)cc2[C@@H](c2ccccc2C2CC2)C1 [Compound 135] | inhibition at 27 µM (SUMO E1; 30 min preincubation): 95%
< 1 | – | C=C(C)C(=O)N1Cc2sc(Cl)cc2[C@@H](c2ccccc2C)C1 [Compound 106] | inhibition at 27 µM (SUMO E1; 30 min preincubation): < 1%
< 1 | 90 | C=CC(=O)N1Cc2ccc(Br)cc2[C@@H](c2ccccc2C(F)(F)F)C1 [Compound 57] | –
< 1 | 90 | C=CC(=O)N1Cc2ccc(Br)cc2[C@@H](c2ccccc2)C1 [Compound 29] | –
< 1 | – | C=CC(=O)N1Cc2cc(Cl)ccc2[C@@H](c2ccccc2C)C1 [Compound 75] | inhibition at 10 µM (SUMO E1; 60 min preincubation): 100%
< 1 | < 1 | C=CC(=O)N1CCc2cc(Cc3ccc(OC)cc3)ccc2C1 [Compound 23] | –
< 1 | – | Cc1ccccc1[C@H]1CN(C(=O)c2cccnc2Cl)Cc2sc(Cl)cc21 [Compound 118] | inhibition at 27 µM (SUMO E1; 30 min preincubation): < 1%
< 1 | – | O=C(/C=C/C(F)(F)F)N1Cc2sc(Cl)cc2[C@@H](c2ccccc2CC2CCOCC2)C1 [Compound 141] | inhibition at 1 µM (SUMO E1; 30 min preincubation): 50%
< 1 | < 1 | C=CC(=O)N1Cc2ccccc2[C@@H](C(=O)Nc2ccccc2)C1 [Compound 32] | –
< 1 | < 1 | C=CC(=O)N1Cc2ccc(-c3ccccc3)cc2[C@@H](c2ccccc2)C1 [Compound 38] | –
< 1 | < 1 | C=CC(=O)N1CCCc2cc(Br)ccc21 [Compound 20] | –
< 1 | < 1 | C=CC(=O)N1Cc2ccc(Oc3cccnc3)cc2[C@@H](c2ccccc2)C1 [Compound 31] | –
< 1 | – | C=CC(=O)N1Cc2sc(Cl)cc2[C@@H](c2ccccc2F)C1 [Compound 114] | inhibition at 1 µM (SUMO E1; 30 min preincubation): 100%
< 1 | – | C=CC(=O)N1Cc2cc(Cl)ccc2[C@@H](c2ccc[nH]c2=O)C1 [Compound 94] | inhibition at 9 µM (SUMO E1; 30 min preincubation): < 1%
< 1 | – | C=CC(=O)N1Cc2cc(C)ccc2[C@@H](c2ccccc2C)C1 [Compound 85] | inhibition at 10 µM (SUMO E1; 30 min preincubation): 100%
< 1 | – | C=CC(=O)N1Cc2ccc(Cl)cc2[C@@H](c2ccccc2)C1 [Compound 63] | inhibition at 10 µM (SUMO E1; 60 min preincubation): 50%
< 1 | – | C=CC(=O)N1Cc2sc(Cl)cc2[C@@H]([C@@H](CC)C(=O)O)C1 [Compound 134] | inhibition at 27 µM (SUMO E1; 15 min preincubation): < 1%
< 1 | – | C=CC(=O)N1Cc2oc(C)cc2[C@@H](c2ccccc2)C1 [Compound 83] | inhibition at 10 µM (SUMO E1; 30 min preincubation): < 1%
< 1 | – | O=C(/C=C/C(F)(F)F)N1Cc2sc(Cl)cc2[C@@H](c2ccccc2F)C1 [Compound 120] | inhibition at 1 µM (SUMO E1; 30 min preincubation): 100%
< 1 | – | Cc1ccccc1[C@H]1CN(C(=O)/C=C/C(F)(F)c2ccccn2)Cc2sc(Cl)cc21 [Compound 143] | inhibition at 27 µM (SUMO E1; 30 min preincubation): < 1%

inhibition at 25 µM (Atg7) [%] | inhibition at 25 µM (SUMO E1; 60 min preincubation) [%] | SMILES | further results
< 1 | < 1 | C=CC(=O)N1Cc2ccc(N)cc2C1 [Compound 14] | –
< 1 | – | C=CC(=O)N1Cc2sc(-c3ccccc3)cc2[C@@H](c2ccccc2)C1 [Compound 103] | inhibition at 27 µM (SUMO E1; 30 min preincubation): < 1%
< 1 | – | C=CC(=O)N1CCc2c(Br)cccc2C1 [Compound 1] | inhibition at 25 µM (SUMO E1; [1]): 50%
< 1 | 10 | C=CC(=O)N1CCc2cc(Oc3cccnc3)ccc2C1 [Compound 54] | –
< 1 | – | C=CC(=O)N1CCc2ccc(Br)cc2C1 [Compound 2] | inhibition at 25 µM (SUMO E1; [1]): 50%
< 1 | < 1 | C=CC(=O)N1Cc2ccc(CC)cc2[C@@H](c2ccccc2)C1 [Compound 41] | –
< 1 | – | C=CC(=O)N1Cc2sc(Cl)cc2[C@@H](c2ccccc2-c2ccncc2)C1 [Compound 136] | inhibition at 3 µM (SUMO E1; 30 min preincubation): 100%
< 1 | – | C=CC(=O)N1Cc2cccc(Br)c2[C@@H](c2ccccc2C)C1 [Compound 69] | inhibition at 10 µM (SUMO E1; 60 min preincubation): 60%
< 1 | 20 | C=CC(=O)N1Cc2ccc(NC(=O)c3cccnc3)cc2C1 [Compound 16] | –
< 1 | – | C=CC(=O)N1CCc2cc(-c3ccccc3)ccc2C1 [Compound 6] | inhibition at 25 µM (SUMO E1; 30 min preincubation): < 1%
30 | 20 | C=CC(=O)N1Cc2cc(Br)ccc2[C@@H](c2ccccc2O)C1 [Compound 77] | –
< 1 | < 1 | C=CC(=O)N1Cc2ccc(Oc3ccccc3)cc2[C@@H](c2ccccc2)C1 [Compound 30] | –
< 1 | – | Cc1ccccc1[C@H]1CN(C(=O)/C=C/CN(C)C)Cc2sc(Cl)cc21 [Compound 99] | inhibition at 9 µM (SUMO E1; 20 min preincubation): < 1%
< 1 | 10 | C=CC(=O)N1Cc2sc(C)cc2[C@@H](c2ccccc2)C1 [Compound 74] | –
< 1 | – | C=CC(=O)N1Cc2sc(Cl)cc2[C@@H](c2ccccc2)C1 [Compound 73] | inhibition at 10 µM (SUMO E1; 60 min preincubation): 100%
< 1 | – | C=CC(=O)N1Cc2cccc(C)c2[C@@H](c2ccccc2C)C1 [Compound 86] | inhibition at 10 µM (SUMO E1; 30 min preincubation): < 1%
< 1 | – | C=CC(=O)N[C@H]1Cc2ccsc2[C@@H](c2ccccc2C)C1 [Compound 117] | inhibition at 27 µM (SUMO E1; 30 min preincubation): < 1%
< 1 | – | C=CC(=O)N1Cc2ccc(Cl)c(Cl)c2[C@@H](c2ccccc2)C1 [Compound 101] | inhibition at 3 µM (SUMO E1; 15 min preincubation): 30%
< 1 | – | C=CC(=O)N1Cc2sc(Cl)cc2[C@@H](c2ccccc2-c2ccccc2)C1 [Compound 133] | inhibition at 1 µM (SUMO E1; 30 min preincubation): 95%
< 1 | – | C=CC(=O)N1Cc2cc(Cl)c(Cl)cc2[C@@H](c2ncccc2C)C1 [Compound 98] | inhibition at 9 µM (SUMO E1; 30 min preincubation): < 1%
